Data on 24 molecules can be found in US20230159453A1 (COCRYSTAL PHARMA, INC., priority 2020, published 2023).

pIC50: −log10 of the molar value. Where only a bound is given, the exact number is not on record here.

The target in the assay is SARS2 protease (Severe acute respiratory syndrome coronavirus 2, UniProt P0DTD1). The assay can be described thus: SARS-CoV-2 protease inhibition assay (SARS2 FRET protease assay). In kind it is biochemical. To be noted: SARS-CoV-2 protease 25 nM, FRET, peptide substrate 1.3 μM, 30 minutes at 30° C., compounds 20 μM to 1.0 nM; read-out: IC50.
In general, pIC50 refers to the negative decadic logarithm of the IC50, by convention in mol/L. As for `COc1cccc2[nH]c(C(=O)N[C@@H](CC3CCCCC3)C(=O)NC(C=O)CC3CC4(CCN(C(C)=O)CC4)NC3=O)cc12` (stereo partly drawn) [Compound C133, N-((2S)-1-((1-(8-acetyl-2-oxo-1,8-diazaspiro[4.5]decan-3-yl)-3-oxopropan-2-yl)amino)-3-cyclohexyl-1-oxopropan-2-yl)-4-methoxy-1H-indole-2-carboxamide], the negative logarithm of the IC50 (pIC50) is 10.07.
Take `CC(C)(c1cccc(Cl)c1)C(OC(=O)N[C@@H](CC1CCCCC1)C(=O)N[C@@H](C[C@@H]1CCNC1=O)C(=O)C(N)=O)c1ccc(Cl)cc1` (stereo partly drawn) [Compound C134, 2-(3-Chlorophenyl)-1-(4-chlorophenyl)-2-methylpropyl ((S)-1-(((S)-4-amino-3,4-dioxo-1-((S)-2-oxopyrrolidin-3-yl)butan-2-yl)amino)-3-cyclohexyl-1-oxopropan-2-yl)carbamate]: the negative-log IC50 (pIC50) was 6.12.
As for `CC(C)(c1cccc(Cl)c1)C(OC(=O)N[C@@H](CC1CCCCC1)C(=O)N[C@@H](C[C@@H]1CCNC1=O)C(=O)C(N)=O)c1ccc(F)cc1` (stereo partly drawn) [Compound C135, 2-(3-Chlorophenyl)-1-(4-fluorophenyl)-2-methylpropyl ((S)-1-(((S)-4-amino-3,4-dioxo-1-((S)-2-oxopyrrolidin-3-yl)butan-2-yl)amino)-3-cyclohexyl-1-oxopropan-2-yl) carbamate], the negative-log IC50 (pIC50) is 5.72.
Then `Cc1cccc(C(OC(=O)N[C@@H](CC2CCCCC2)C(=O)N[C@H](C=O)C[C@@H]2CCNC2=O)C(C)(C)c2cccc(Cl)c2)c1` (stereo partly drawn) [Compound C136, 2-(3-Chlorophenyl)-2-methyl-1-(m-tolyl) propyl ((S)-3-cyclohexyl-1-oxo-1-(((S)-1-oxo-3-((S)-2-oxopyrrolidin-3-yl)propan-2-yl)amino)propan-2-yl) carbamate], with 9.35.
Then `CC(C)(c1cccc(Cl)c1)C(OC(=O)N[C@@H](CC1CCCCC1)C(=O)N[C@H](C=O)C[C@@H]1CCNC1=O)c1ccc(F)cc1` (stereo partly drawn) [Compound C137, 2-(3-Chlorophenyl)-1-(4-fluorophenyl)-2-methylpropyl ((S)-3-cyclohexyl-1-oxo-1-(((S)-1-oxo-3-((S)-2-oxopyrrolidin-3-yl)propan-2-yl)amino)propan-2-yl) carbamate], with 7.36.
Turning to `CC(C)C(=O)N1CCC2(CC1)CC(CC(NC(=O)[C@H](CC1CCCCC1)NC(=O)c1cc3ccccc3[nH]1)C(=O)C(N)=O)C(=O)N2` (stereo partly drawn) [Compound C138, N-((2S)-1-((4-amino-1-(8-isobutyryl-2-oxo-1,8-diazaspiro[4.5]decan-3-yl)-3,4-dioxobutan-2-yl)amino)-3-cyclohexyl-1-oxopropan-2-yl)-1H-indole-2-carboxamide], the negative logarithm of the IC50 (pIC50) was 6.61.
Then `CC(C)(C1CCCCC1)C(NC(=O)OCc1ccccc1)C(=O)N[C@H](C=O)C[C@@H]1CCNC1=O` (stereo partly drawn) [Compound C140, Benzyl (3-cyclohexyl-3-methyl-1-oxo-1-(((S)-1-oxo-3-((S)-2-oxopyrrolidin-3-yl)propan-2-yl)amino)butan-2-yl)carbamate], with 6.39.
The same measure for `CC(=O)N1CCC2(CC1)CC(CC(C=O)NC(=O)[C@H](CC1CCCCC1)NC(=O)c1cc3cc(Cl)ccc3[nH]1)C(=O)N2` (stereo partly drawn) [Compound C141, N-((2S)-1-((1-(8-acetyl-2-oxo-1,8-diazaspiro[4.5]decan-3-yl)-3-oxopropan-2-yl)amino)-3-cyclohexyl-1-oxopropan-2-yl)-5-chloro-1H-indole-2-carboxamide]: 7.51; for `CC(C)(c1cccc(Cl)c1)C(OC(=O)N[C@@H](CC1CCCCC1)C(=O)N[C@H](C=O)C[C@@H]1CCNC1=O)c1ccc(Cl)cc1` (stereo partly drawn) [Compound C143, 2-(3-Chlorophenyl)-1-(4-chlorophenyl)-2-methylpropyl ((S)-3-cyclohexyl-1-oxo-1-(((S)-1-oxo-3-((S)-2-oxopyrrolidin-3-yl)propan-2-yl)amino)propan-2-yl) carbamate]: 8.44; for `CC(C)(c1cccc(Cl)c1)C(OC(=O)N[C@@H](CC1CCCCC1)C(=O)N[C@@H](C[C@@H]1CCNC1=O)C(=O)C(=O)NC1CC1)c1ccc(F)cc1` (stereo partly drawn) [Compound C144, 2-(3-Chlorophenyl)-1-(4-fluorophenyl)-2-methylpropyl ((S)-3-cyclohexyl-1-(((S)-4-(cyclopropylamino)-3,4-dioxo-1-((S)-2-oxopyrrolidin-3-yl)butan-2-yl)amino)-1-oxopropan-2-yl) carbamate]: 5.69.
As for `CC(C)(c1cccc(Cl)c1)C(OC(=O)N[C@@H](CC1CCCCC1)C(=O)N[C@@H](C[C@@H]1CCNC1=O)C(=O)C(=O)NC1CC1)c1ccc(Cl)cc1` (stereo partly drawn) [Compound C145, 2-(3-Chlorophenyl)-1-(4-chlorophenyl)-2-methylpropyl ((S)-3-cyclohexyl-1-(((S)-4-(cyclopropylamino)-3,4-dioxo-1-((S)-2-oxopyrrolidin-3-yl)butan-2-yl)amino)-1-oxopropan-2-yl) carbamate], the negative-log IC50 (pIC50) was 5.37.
The same measure for `O=C(N[C@@H](Cc1ccccc1)C(=O)N[C@@H](C[C@@H]1CCNC1=O)C(=O)C(=O)NC1CC1)OC1CCCC1Cc1cccc(Cl)c1` (stereo partly drawn) [Compound C146]: under 4.70; for `CC(C)C[C@H](NC(=O)OC(Cc1cccc(Cl)c1)c1ccccc1)C(=O)N[C@@H](C[C@@H]1CCNC1=O)C(=O)C(=O)NC1CC1` (stereo partly drawn) [Compound C147, 2-(3-Chlorophenyl)-1-phenylethyl ((S)-1-(((S)-4-(cyclopropylamino)-3,4-dioxo-1-((S)-2-oxopyrrolidin-3-yl)butan-2-yl)amino)-4-methyl-1-oxopentan-2-yl) carbamate]: 5.52; for `CC(C)(c1cccc(Cl)c1)C(OC(=O)N[C@@H](CC1CCCCC1)C(=O)N[C@@H](C[C@@H]1CCNC1=O)C(=O)C(=O)NC1CC1)c1ccccc1` (stereo partly drawn) [Compound C148, 2-(3-Chlorophenyl)-2-methyl-1-phenylpropyl ((S)-3-cyclohexyl-1-(((S)-4-(cyclopropylamino)-3,4-dioxo-1-((S)-2-oxopyrrolidin-3-yl)butan-2-yl)amino)-1-oxopropan-2-yl)carbamate]: 6.01.
Regarding `O=C(N[C@@H](CC1CCCCC1)C(=O)N[C@@H](C[C@H]1CC2(CCCCC2)NC1=O)C(=O)C(=O)NC1CC1)OCc1cccc(Cl)c1` [Compound C149, 3-Chlorobenzyl ((S)-3-cyclohexyl-1-(((S)-4-(cyclopropylamino)-3,4-dioxo-1-((S)-2-oxo-1-azaspiro[4.5]decan-3-yl)butan-2-yl)amino)-1-oxopropan-2-yl)carbamate], the negative logarithm of the IC50 (pIC50) was 5.40.
Regarding `CC(C)(c1cccc(Cl)c1)C(OC(=O)N[C@@H](CC1CCCCC1)C(=O)N[C@@H](C[C@@H]1CCNC1=O)C(=O)C(=O)N1CCCC1)c1ccc2ccccc2c1` (stereo partly drawn) [Compound C150, 2-(3-Chlorophenyl)-2-methyl-1-(naphthalen-2-yl)propyl ((S)-3-cyclohexyl-1-(((S)-3,4-dioxo-1-((S)-2-oxopyrrolidin-3-yl)-4-(pyrrolidin-1-yl)butan-2-yl)amino)-1-oxopropan-2-yl)carbamate], the pIC50 was under 4.70.
With `O=C(N[C@@H](CC1CCCCC1)C(=O)N[C@@H](C[C@@H]1CCNC1=O)C(=O)C(=O)NC1CC1)OC1CCCC1Cc1cccc(Cl)c1` (stereo partly drawn) [Compound C151, 2-(3-Chlorobenzyl)cyclopentyl ((S)-3-cyclohexyl-1-(((S)-4-(cyclopropylamino)-3,4-dioxo-1-((S)-2-oxopyrrolidin-3-yl)butan-2-yl)amino)-1-oxopropan-2-yl)carbamate], the negative-log IC50 (pIC50) was 5.44.
Then `CC(C)C[C@H](NC(=O)OC1CCCC1Cc1cccc(Cl)c1)C(=O)N[C@H](C=O)C[C@@H]1CCNC1=O` (stereo partly drawn) [Compound C152, 2-(3-chlorobenzyl)cyclopentyl ((S)-4-methyl-1-oxo-1-(((S)-1-oxo-3-((S)-2-oxopyrrolidin-3-yl)propan-2-yl)amino)pentan-2-yl)carbamate], with 7.93; and `O=C(N[C@@H](CC1CCCCC1)C(=O)NC(CC1CC2(CCCCC2)NC1=O)C(=O)C(=O)NC1CC1)OC(Cc1cccc(Cl)c1)c1ccccc1` (stereo partly drawn) [Compound C153, 2-(3-Chlorophenyl)-1-phenylethyl ((2S)-3-cyclohexyl-1-((4-(cyclopropylamino)-3,4-dioxo-1-(2-oxo-1-azaspiro[4.5]decan-3-yl)butan-2-yl)amino)-1-oxopropan-2-yl)carbamate], with under 4.70; and `O=C(N[C@@H](CC1CCCCC1)C(=O)N[C@@H](C[C@@H]1CCNC1=O)C(=O)C(=O)NC1CC1)OCc1cccc(Cl)c1` [Compound C154, 3-Chlorobenzyl ((S)-3-cyclohexyl-1-(((S)-4-(cyclopropylamino)-3,4-dioxo-1-((S)-2-oxopyrrolidin-3-yl)butan-2-yl)amino)-1-oxopropan-2-yl)carbamate], with 5.83.
Turning to `CC1(C)CC(CC(NC(=O)[C@H](CC2CCCCC2)NC(=O)OC(Cc2cccc(Cl)c2)c2ccccc2)C(=O)C(=O)NC2CC2)C(=O)N1` (stereo partly drawn) [Compound C155, 2-(3-Chlorophenyl)-1-phenylethyl ((2S)-3-cyclohexyl-1-((4-(cyclopropylamino)-1-(5,5-dimethyl-2-oxopyrrolidin-3-yl)-3,4-dioxobutan-2-yl)amino)-1-oxopropan-2-yl) carbamate], the pIC50 was 5.81.
Then `CC1(C)CC(C[C@@H](C=O)NC(=O)[C@H](CC2CCCCC2)NC(=O)OC2CCCC2Cc2cccc(Cl)c2)C(=O)N1` (stereo partly drawn) [Compound C156, 2-(3-Chlorobenzyl)cyclopentyl ((2S)-3-cyclohexyl-1-((1-(5,5-dimethyl-2-oxopyrrolidin-3-yl)-3-oxopropan-2-yl)amino)-1-oxopropan-2-yl)carbamate], with 7.28; and `CCCC[C@H](NC(=O)OC(c1ccccc1)C(C)(C)c1cccc(Cl)c1)C(=O)N[C@H](C=O)C[C@@H]1CCNC1=O` (stereo partly drawn) [Compound C157, 2-(3-Chlorophenyl)-2-methyl-1-phenylpropyl ((S)-1-oxo-1-(((S)-1-oxo-3-((S)-2-oxopyrrolidin-3-yl)propan-2-yl)amino)hexan-2-yl) carbamate], with 10.00.
The same measure for `O=C(N[C@@H](CC1CCCCC1)C(=O)N[C@@H](C[C@@H]1CCNC1=O)C(=O)C(=O)NC1CC1)OC(Cc1cccc(Cl)c1)c1ccccc1` (stereo partly drawn) [Compound C158]: 5.58.
